Assays:
[1] = system: A/Yokohama/59/2016 (wild-type); experiment: microbe, parasite or virus in culture; conditions: Influenza A virus
[2] = system: A/Sakai/23/2013 (wild-type); experiment: microbe, parasite or virus in culture; conditions: Influenza A virus
[3] = system: A/Yokohama/40/2016 (wild-type); experiment: microbe, parasite or virus in culture; conditions: Influenza A virus
[4] = system: A/Yokohama/59/2016 (wild-type); experiment: microbe, parasite or virus in culture; conditions: Influenza A virus, AX4
[5] = system: A/Sakai/23/2013 (wild-type); experiment: microbe, parasite or virus in culture; conditions: Influenza A virus, AX4
[6] = system: A/Yokohama/40/2016 (wild-type); experiment: microbe, parasite or virus in culture; conditions: Influenza A virus, AX4
[7] = molecular target: neuraminidase of A/Sakai/23/2013 (wild-type) (Influenza A virus, UniProt W8DXJ8)
[8] = molecular target: neuraminidase of A/Yokohama/40/2016 (wild-type) (Influenza A virus, UniProt A0A0X9QTS2)
[9] = molecular target: neuraminidase of A/Yokohama/59/2016 (wild-type) (Influenza A virus, UniProt A0A0X9QTS2)

SMILES: O=C1c2c(O)c(=O)ccn2N([C@@H]2c3ccccc3SCc3c2ccc(F)c3F)[C@@H]2COCCN12 [Baloxavir, Baloxavir acid]
- IC50 [1]: 11 nM
- IC50 [2]: 4.05 nM
- IC50 [3]: 6.16 nM

SMILES: NC(=O)c1nc(F)c[nH]c1=O [Favipiravir, favipiravir]
- EC50 [4]: 8810 nM
- EC50 [5]: 6640 nM
- EC50 [6]: 10000 nM

SMILES: CCC(CC)[C@H](NC(C)=O)[C@@H]1[C@H](O)[C@@H](C(=O)O)C[C@H]1N=C(N)N.O.O.O [Peramivir, peramivir trihydrate]
- IC50 [7]: 0.01 nM
- IC50 [8]: 0.07 nM
- IC50 [9]: 0.08 nM

From PMC7559125 (Pathogens, 2020)
